Each structure is given as a SMILES string. Structures can show the parent of a compound that is named as a salt.

Usually IC50 stands for the concentration needed to halve the response being measured.

Sequence of MAGL (Q99685 whole entry, species assumed): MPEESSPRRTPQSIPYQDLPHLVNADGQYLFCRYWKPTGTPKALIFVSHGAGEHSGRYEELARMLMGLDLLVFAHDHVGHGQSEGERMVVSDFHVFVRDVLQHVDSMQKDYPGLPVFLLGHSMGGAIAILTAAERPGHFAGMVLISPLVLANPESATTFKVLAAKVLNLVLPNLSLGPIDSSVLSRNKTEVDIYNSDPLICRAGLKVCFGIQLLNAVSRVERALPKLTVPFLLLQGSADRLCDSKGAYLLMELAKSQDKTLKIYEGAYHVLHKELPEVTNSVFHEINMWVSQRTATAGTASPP

This assay has as its target MAGL (Homo sapiens (Human), UniProt Q99685). In words: 2-AG assay (MAGL inhibitory activity, hydrolysis of 2-arachidonoylglycerol followed by mass spectrometry). The assay is classed as biochemical. The following applies: 50 pM MAGL protein, 15 min pre-incubation, 30 min incubation at RT. The method, boiled down: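 Human MAGL (50 pM final) preincubated 15 min at RT with compound (3-fold dilutions, 12.5 μM to 0.8 pM final) in 50 mM TRIS, 1 mM EDTA, 0.01% Tween-20, 2.5% DMSO. Reaction with […] 2-AG ran 30 min at RT, then was quenched with acetonitrile containing d8-arachidonic acid. Arachidonic acid measured by SPE–triple-quad MS (negative ESI), activity from the arachidonic/d8-arachidonic acid intensity ratio.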
For the compound `C[C@H]1c2nn(C)c(-c3cc(F)cc(F)c3)c2CCN1C(=O)c1cc(F)cc(N2CC3(C2)CS(=O)(=O)C3)c1Cl` [Example 20, [2-Chloro-3-(2,2-dioxo-2λ^6-thia-6-azaspiro[3.3]heptan-6-yl)-5-fluoro-phenyl]-[(7S)-3-(3,5-difluorophenyl)-2,7-dimethyl-5,7-dihydro-4H-pyrazolo[3,4-c]pyridine-6-yl]methanone], the IC50 came to 27 nM. This lies in the double-digit nanomolar range.
Under `C[C@H]1c2nn(C)c(-c3cc(Cl)cc(C4(NS(C)(=O)=O)CC4)c3)c2CCN1C(=O)c1cc(F)cc(-c2c[nH]c(C#N)c2)c1Cl` [Example 85, N-[1-[3-chloro-5-[(7S)-6-[2-chloro-3-(5-cyano-1H-pyrrol-3-yl)-5-fluoro-benzoyl]-2,7-dimethyl-5,7-dihydro-4H-pyrazolo[3,4-c]pyridin-3-yl]phenyl]cyclopropyl]methanesulfonamide] stands 13.8 nM.
The result for `COc1cccc(C(=O)N2CCn3c(-c4cccc(Cl)c4)nnc3[C@@H]2C)c1Cl` [Example 116, (2-chloro-3-methoxy-phenyl)-[(5S)-9-(3-chlorophenyl)-5-methyl-1,4,7,8-tetrazabicyclo[4.3.0]nona-1(9),6-dien-4-yl]methanone] reads 2380 nM; that for `C[C@@H]1c2nn(C)c(-c3cncc(C(F)(F)F)n3)c2CCN1C(=O)c1cc(F)cc(N2CC3(C2)CS(=O)(=O)C3)c1Cl` [Example 66, [2-chloro-3-(2,2-dioxo-2λ^6-thia-6-azaspiro[3.3]heptan-6-yl)-5-fluoro-phenyl]-[(7R)-2,7-dimethyl-3-[6-(trifluoromethyl)pyrazin-2-yl]-5,7-dihydro-4H-pyrazolo[3,4-c]pyridin-6-yl]methanone], 3240 nM; that for `C[C@H]1c2nn(C)c(-c3cc(F)cc(F)c3)c2CCN1C(=O)c1cc(F)cc(OC[C@@H]2CNC(=O)N2)c1Cl` (single isomer, unassigned) [Example 113], 2.48 nM.
The compound `C[C@H]1c2nn(C)c(-c3cc(F)cc(F)c3)c2CCN1C(=O)c1ncn(-c2cc(Cl)cnc2O)n1` [Example 35, [1-(5-Chloro-2-hydroxy-3-pyridyl)-1,2,4-triazol-3-yl]-[(7S)-3-(3,5-difluorophenyl)-2,7-dimethyl-5,7-dihydro-4H-pyrazolo[3,4-c]pyridin-6-yl]methanone] had an IC50 of 104 nM.
Under `C[C@H]1c2nn(C)c(-c3cc(F)cc(F)c3)c2CCN1C(=O)c1cc(F)cc(OC[C@@H]2CNC(=O)N2)c1Cl` (single isomer, unassigned) [Example 114] stands 929 nM; under `CC1c2nn(C)c(-c3cc(Cl)cc(C4(NS(C)(=O)=O)CC4)c3)c2CCN1C(=O)c1cc(F)cc(-c2cc[nH]c(=O)c2)c1Cl` (stereo not shown) [Example 57, N-[1-[3-Chloro-5-[6-[2-chloro-5-fluoro-3-(2-oxo-1H-pyridin-4-yl)benzoyl]-2,7-dimethyl-5,7-dihydro-4H-pyrazolo[3,4-c]pyridin-3-yl]phenyl]cyclopropyl]methanesulfonamide], 115 nM.
The result for `C[C@H]1c2nn(C)c(-c3cc(F)cc(F)c3)c2CCN1C(=O)c1cc(F)cc(OCC2CNC(=O)O2)c1Cl` (single isomer, unassigned) [Example 49, 5-[[2-Chloro-3-[3-(3,5-difluorophenyl)-2,7-dimethyl-5,7-dihydro-4H-pyrazolo[3,4-c]pyridine-6-carbonyl]-5-fluoro-phenoxy]methyl]oxazolidin-2-one] reads 1 nM.
The result for `CC1c2nn(C)c(-c3cc(F)cc(F)c3)c2CCN1C(=O)c1ccccc1Cn1ccnn1` (stereo not shown) [Example 24, [3-(3,5-Difluorophenyl)-2,7-dimethyl-5,7-dihydro-4H-pyrazolo[3,4-c]pyridin-6-yl]-[2-(triazol-1-ylmethyl)phenyl]methanone] reads 1230 nM; that for `C[C@H]1c2nn(C)c(-c3cc(F)cc(F)c3)c2CCN1C(=O)c1cccc(OCC2CNC(=O)O2)c1Cl` (stereo partly drawn) [Example 110, 5-[[2-chloro-3-[(7S)-3-(3,5-difluorophenyl)-2,7-dimethyl-5,7-dihydro-4H-pyrazolo[3,4-c]pyridine-6-carbonyl]phenoxy]methyl]oxazolidin-2-one], 2.09 nM.
`C[C@H]1c2nn(C)c(-c3cc(Cl)cc(C4(S(C)(=O)=O)CC4)c3)c2CCN1C(=O)c1cc(F)cc(-c2ccc(=O)[nH]c2)c1Cl` [Example 73, 5-[2-chloro-3-[(7S)-3-[3-chloro-5-(1-methylsulfonylcyclopropyl)phenyl]-2,7-dimethyl-5,7-dihydro-4H-pyrazolo[3,4-c]pyridine-6-carbonyl]-5-fluoro-phenyl]-1H-pyridin-2-one] yielded an IC50 of 145 nM. This IC50 is about 69-fold higher than that of the compound before.
The result for `COc1cccc(C(=O)N2CCc3c(nn(C)c3-c3ccnc(C(F)(F)F)n3)[C@@H]2C)c1Cl` [Example 81, (2-chloro-3-methoxy-phenyl)-[(7S)-2,7-dimethyl-3-[2-(trifluoromethyl)pyrimidin-4-yl]-5,7-dihydro-4H-pyrazolo[3,4-c]pyridin-6-yl]methanone] reads 21 nM; that for `CC1c2nn(C)c(-c3cc(Cl)cc(C4(NS(C)(=O)=O)CC4)c3)c2CCN1C(=O)c1cc(F)cc(CCc2c[nH]nn2)c1Cl` (stereo not shown) [Example 87, N-[1-[3-chloro-5-[6-[2-chloro-5-fluoro-3-[2-(H-triazol-4-yl)ethyl]benzoyl]-2,7-dimethyl-5,7-dihydro-4H-pyrazolo[3,4-c]pyridin-3-yl]phenyl]cyclopropyl]methanesulfonamide], 8.15 nM; that for `C[C@@H]1c2nn(C)c(-c3cc(F)cc(F)c3)c2CCN1C(=O)c1cc(F)cc(CCc2cn[nH]c2)c1Cl` [Example 103, [2-chloro-5-fluoro-3-[2-(1H-pyrazol-4-yl)ethyl]phenyl]-[(7R)-3-(3,5-difluorophenyl)-2,7-dimethyl-5,7-dihydro-4H-pyrazolo[3,4-c]pyridin-6-yl]methanone], 440 nM.
Under `C[C@H]1c2nn(C)c(-c3cc(F)c(F)c(F)c3)c2CCN1C(=O)c1cc(F)cc(-c2c[nH]c(C#N)c2)c1Cl` [Example 92, 4-[2-chloro-3-[(7S)-2,7-dimethyl-3-(3,4,5-trifluorophenyl)-5,7-dihydro-4H-pyrazolo[3,4-c]pyridine-6-carbonyl]-5-fluoro-phenyl]-1H-pyrrole-2-carbonitrile] stands 4.35 nM.
`C[C@@H]1c2nn(C)c(-c3cc(F)cc(F)c3)c2CCN1C(=O)c1cc(F)cc(C2=CC(Cl)C(=O)N=C2)c1Cl` (stereo partly drawn) [Example 99, 3-chloro-5-[2-chloro-3-[(7R)-3-(3,5-difluorophenyl)-2,7-dimethyl-5,7-dihydro-4H-pyrazolo[3,4-c]pyridine-6-carbonyl]-5-fluoro-phenyl]-3H-pyridin-2-one]: the IC50 came out at 767 nM. This IC50 is about 180-fold higher than that of the compound before.
Under `COc1cccc(C(=O)N2CCc3c(nn(C)c3-c3nnc(C(F)(F)F)o3)[C@@H]2C)c1Cl` [Example 12, (2-Chloro-3-methoxy-phenyl)-[(7S)-2,7-dimethyl-3-[5-(trifluoromethyl)-1,3,4-oxadiazol-2-yl]-5,7-dihydro-4H-pyrazolo[3,4-c]pyridin-6-yl]methanone] stands 390 nM; under `CC1c2nn(C)c(-c3cc(F)cc(F)c3)c2CCN1C(=O)c1cc(F)cc(C2=CC(Cl)C(=O)N=C2)c1Cl` (stereo not shown) [Example 97, 3-chloro-5-[2-chloro-3-[3-(3,5-difluorophenyl)-2,7-dimethyl-5,7-dihydro-4H-pyrazolo[3,4-c]pyridine-6-carbonyl]-5-fluoro-phenyl]-3H-pyridin-2-one], 8.44 nM.
Under `C[C@H]1c2nn(C)c(-c3cc(F)c(F)c(F)c3F)c2CCN1C(=O)c1cc(F)cc(-c2c[nH]c(C#N)c2)c1Cl` [Example 90, 4-[2-chloro-3-[(7S)-2,7-dimethyl-3-(2,3,4,5-tetrafluorophenyl)-5,7-dihydro-4H-pyrazolo[3,4-c]pyridine-6-carbonyl]-5-fluoro-phenyl]-1H-pyrrole-2-carbonitrile] stands 24.6 nM.
As for `CC1c2nn(C)c(-c3cc(F)cc(F)c3)c2CCN1C(=O)c1cc(F)cc(CNC2CNC(=O)C2)c1Cl` (stereo not shown) [Example 106, 4-[[2-chloro-3-[3-(3,5-difluorophenyl)-2,7-dimethyl-5,7-dihydro-4H-pyrazolo[3,4-c]pyridine-6-carbonyl]-5-fluoro-phenyl]methylamino]pyrrolidin-2-one;hydrochloride], the midpoint of inhibition, the IC50, lay at 12.4 nM. This IC50 lies about 2-fold lower than the previous one.
Under `C[C@H]1c2nn(C)c(-c3cc(F)cc(F)c3)c2CCN1C(=O)c1cc(F)cc(N2CC3(CCN3)C2)c1Cl` [Example 111, [2-chloro-3-(1,6-diazaspiro[3.3]heptan-6-yl)-5-fluoro-phenyl]-[(7S)-3-(3,5-difluorophenyl)-2,7-dimethyl-5,7-dihydro-4H-pyrazolo[3,4-c]pyridin-6-yl]methanone;2,2,2-trifluoroacetic acid] stands 51.6 nM; under `C[C@H]1c2nn(C)c(-c3cc(Cl)cc(C4(NS(C)(=O)=O)CC4)c3)c2CCN1C(=O)c1ncn(-c2cc(Cl)cnc2O)n1` [Example 91, N-[1-[3-chloro-5-[(7S)-6-[1-(5-chloro-2-hydroxy-3-pyridyl)-1,2,4-triazole-3-carbonyl]-2,7-dimethyl-5,7-dihydro-4H-pyrazolo[3,4-c]pyridin-3-yl]phenyl]cyclopropyl]methanesulfonamide], 1730 nM; under `CC1c2nn(C)c(-c3cc(Cl)cc(S(N)(=O)=O)c3)c2CCN1C(=O)c1cc(F)cc(-c2nc[nH]n2)c1Cl` (stereo not shown) [Example 61, 3-Chloro-5-[6-[2-chloro-5-fluoro-3-(1H-1,2,4-triazol-3-yl)benzoyl]-2,7-dimethyl-5,7-dihydro-4H-pyrazolo[3,4-c]pyridin-3-yl]benzenesulfonamide], 77 nM.
The compound `CC1c2nn(C)c(-c3cc(F)cc(F)c3)c2CCN1C(=O)c1cc(F)cc(C2=NOC(C)(C)C2)c1Cl` (stereo not shown) [Example 28, [2-Chloro-3-(5,5-dimethyl-4H-isoxazol-3-yl)-5-fluoro-phenyl]-[3-(3,5-difluorophenyl)-2,7-dimethyl-5,7-dihydro-4H-pyrazolo[3,4-c]pyridin-6-yl]methanone] displayed an IC50 of 385 nM.
